Results reported in publication PMC9814779, “A triple farnesoid X receptor and peroxisome proliferator-activated receptor α/δ activator reverses hepatic fibrosis in diet-induced NASH in mice” (Communications Chemistry, 2020).
Like-named read-outs stand apart in the source and are kept apart here.

Assays:
[1] = biological target: T1, human PPARδ ligand-binding domain (Gal4 chimera) (Homo sapiens, UniProt Q03181); assay: Gal4 hybrid reporter gene assay, PPARδ; format: cell-based; parameters: Emax: dose or concentration left out as unconfirmed; details: for EC50: mean ± SEM
T1 construct: coding for the hinge region and LBD of the canonical isoform of the respective nuclear receptor; expressed in transfected cells; host or cells: HEK293T
T1 sequence (Q03181 211-439 limits assumed): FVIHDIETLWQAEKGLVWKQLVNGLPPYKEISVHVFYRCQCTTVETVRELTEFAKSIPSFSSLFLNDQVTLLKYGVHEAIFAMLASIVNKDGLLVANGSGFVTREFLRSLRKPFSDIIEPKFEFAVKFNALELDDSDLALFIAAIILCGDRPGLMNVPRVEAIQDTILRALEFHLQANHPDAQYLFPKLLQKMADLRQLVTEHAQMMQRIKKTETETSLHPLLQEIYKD

[2] = biological target: T2, human FXR:retinoid X receptor (RXR) heterodimer (Homo sapiens, UniProt Q96RI1); assay: Full-length FXR reporter gene assay (BSEP response element) in HeLa cells; format: cell-based; parameters: Emax: dose or concentration left out as unconfirmed; details: for Emax: read-out: max. rel. act. FXR; for EC50: mean ± SEM; for FXR max. rel. act.: Supplementary Table 1, relative to GW4064 at 3 µM
T2 construct: pcDNA3-hFXR[32] and pSG5-hRXR[33] served for receptor overexpression in the full-length FXR assay; expressed in transfected cells; host or cells: HeLa

[3] = biological target: T3, human PPARγ ligand-binding domain (Gal4 chimera) (Homo sapiens, UniProt P37231); assay: Gal4 hybrid reporter gene assay, PPARγ; format: cell-based; parameters: Emax: dose or concentration left out as unconfirmed
T3 construct: coding for the hinge region and LBD of the canonical isoform of the respective nuclear receptor; expressed in transfected cells; host or cells: HEK293T
T3 sequence (P37231 238-503 limits assumed): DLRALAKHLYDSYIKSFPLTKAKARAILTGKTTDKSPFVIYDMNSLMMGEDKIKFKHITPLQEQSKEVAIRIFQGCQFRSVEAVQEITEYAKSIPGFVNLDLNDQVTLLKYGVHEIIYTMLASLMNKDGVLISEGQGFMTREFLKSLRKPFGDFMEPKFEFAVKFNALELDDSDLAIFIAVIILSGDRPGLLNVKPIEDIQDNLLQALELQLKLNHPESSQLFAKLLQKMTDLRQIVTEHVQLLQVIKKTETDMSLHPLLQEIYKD

[4] = biological target: T4, human PPARα ligand-binding domain (Gal4 chimera) (Homo sapiens, UniProt Q07869); assay: Gal4 hybrid reporter gene assay, PPARα; format: cell-based; parameters: Emax: dose or concentration left out as unconfirmed; details: for EC50: mean ± SEM
T4 construct: coding for the hinge region and LBD of the canonical isoform of the respective nuclear receptor; expressed in transfected cells; host or cells: HEK293T
T4 sequence (Q07869 239-466 limits assumed): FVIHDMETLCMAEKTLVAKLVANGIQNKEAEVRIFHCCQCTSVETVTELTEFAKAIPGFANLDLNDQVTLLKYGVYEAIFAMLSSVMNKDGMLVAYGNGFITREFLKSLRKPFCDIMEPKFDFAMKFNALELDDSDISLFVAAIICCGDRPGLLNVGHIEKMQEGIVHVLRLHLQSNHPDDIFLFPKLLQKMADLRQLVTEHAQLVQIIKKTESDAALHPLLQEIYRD

[5] = Microsomal stability assay; format: in vitro ADME, rat; details: 10 μM, rat liver microsomes, 37 °C; 41 n = 3, 7-EC n = 1
[6] = EC50 [μM] PPARδ, HEK293T, n = 3
[7] = HeLa, n = 3, read-out: EC50 [μM] FXR
[8] = EC50 [μM] PPARα, HEK293T, n = 3
[9] = HEK293T, n = 3, read-out: EC50 [μM] PPARδ
[10] = HEK293T, mean ± SEM, n = 3, read-out: EC50 [μM] PPARγ
[11] = Supplementary Table 1, chromene derivatives, n ≥ 2, read-out: PPAR EC50
[12] = Supplementary Table 1, chromene derivatives, n ≥ 2, read-out: FXR EC50
[13] = Supplementary Table 1, chromene derivatives, mean ± SEM, n ≥ 2, read-out: PPAR EC50
[14] = PPAR EC50 [M], Supplementary Table 1, chromene derivatives, n ≥ 2

T2 sequence (P19793 whole entry): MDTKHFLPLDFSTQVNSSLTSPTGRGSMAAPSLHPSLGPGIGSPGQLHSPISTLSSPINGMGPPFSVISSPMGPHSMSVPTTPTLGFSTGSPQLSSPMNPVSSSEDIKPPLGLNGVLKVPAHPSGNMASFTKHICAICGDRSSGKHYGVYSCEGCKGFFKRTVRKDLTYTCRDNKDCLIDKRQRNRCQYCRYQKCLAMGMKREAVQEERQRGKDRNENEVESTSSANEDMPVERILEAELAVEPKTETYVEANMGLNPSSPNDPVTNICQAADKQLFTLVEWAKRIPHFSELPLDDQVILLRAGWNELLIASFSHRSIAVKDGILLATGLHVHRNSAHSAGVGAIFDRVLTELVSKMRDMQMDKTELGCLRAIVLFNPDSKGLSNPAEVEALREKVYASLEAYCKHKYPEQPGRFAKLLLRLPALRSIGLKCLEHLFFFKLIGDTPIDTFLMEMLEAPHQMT
T2 sequence (Q96RI1 whole entry): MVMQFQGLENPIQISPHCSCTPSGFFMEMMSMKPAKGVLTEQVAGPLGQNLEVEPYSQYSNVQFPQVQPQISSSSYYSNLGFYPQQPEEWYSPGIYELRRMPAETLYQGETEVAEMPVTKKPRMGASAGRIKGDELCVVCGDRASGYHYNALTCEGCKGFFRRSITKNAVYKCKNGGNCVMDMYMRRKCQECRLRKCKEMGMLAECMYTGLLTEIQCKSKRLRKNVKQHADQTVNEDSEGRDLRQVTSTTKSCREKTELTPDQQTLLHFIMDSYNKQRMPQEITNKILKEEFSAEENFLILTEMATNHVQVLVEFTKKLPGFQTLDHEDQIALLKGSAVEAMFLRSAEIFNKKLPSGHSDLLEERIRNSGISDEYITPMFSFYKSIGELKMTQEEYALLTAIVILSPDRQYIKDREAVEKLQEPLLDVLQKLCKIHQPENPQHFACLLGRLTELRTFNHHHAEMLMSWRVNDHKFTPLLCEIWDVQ

| Structure (SMILES) | EC50 [1, 6] | Emax ([1]; read-out: max. rel. act. PPARδ) | Emax ([2]; HeLa) | EC50 [2, 7] | EC50 [3] | Emax ([3]; read-out: max. rel. act. PPARγ) | EC50 [4, 8] | Emax ([4]; read-out: max. rel. act. PPARα) | also measured |
| --- | --- | --- | --- | --- | --- | --- | --- | --- | --- |
| O=C(O)COc1cccc(NC(=O)c2ccccc2NC(=O)c2ccc3ccccc3c2)c1 [compound 13] | 10 ± 1 µM | 43% | 19% | 5 ± 1 µM | 19 ± 1 µM | 11% | 10 ± 1 µM | 35% | – |
| Cc1cccc(C(=O)Nc2cccc(CCC(=O)O)c2)c1NC(=O)c1ccc2ccccc2c1 [compound 16] | 2.7 ± 0.3 µM | 30% | – | > 10 µM | 7.1 ± 1.3 µM | 6% | 6.2 ± 0.1 µM | 31% | – |
| COc1ccc(C(=O)Nc2cccc(NCC(=O)O)c2)c(NC(=O)c2ccc(-c3ccoc3)cc2)c1 [compound 40, (3-[2-{4-(3-Furyl)benzamido}-4-methoxybenzamido]phenyl)glycine] | – | 54% | 43% | 0.29 ± 0.01 µM | – | 9% | > 30 µM | – | EC50 [1, 9]: 1.6 ± 0.1 µM; EC50 [3, 10]: 7.7 ± 0.5 µM |
| O=C(O)CCc1cccc(NC(=O)c2ccccc2NC(=O)c2ccc(-c3cccs3)cc2)c1 [compound 33] | 0.64 ± 0.06 µM | 35% | 21% | 1.7 ± 0.4 µM | 1.4 ± 0.2 µM | 11% | 1.5 ± 0.1 µM | 27% | – |
| O=C(O)CCc1cccc(NC(=O)c2ccccc2NC(=O)c2ccc(-c3ccon3)cc2)c1 [compound 35] | 5.6 ± 0.4 µM | 29% | 32% | 6.8 ± 0.6 µM | 5.8 ± 0.8 µM | 30% | 8 ± 0.4 µM | 11% | – |
| CCOc1ccc2ccc(=O)oc2c1 [7-EC, 7-Ethoxycoumarin, reference compound] | – | – | – | – | – | – | – | – | percent of remaining compound, 15 min [5]: 87%; percent of remaining compound, 30 min [5]: 75%; percent of remaining compound, 60 min [5]: 55% |
| COc1ccc(C(=O)Nc2cccc(CCC(=O)O)c2)c(NC(=O)c2ccc3ccccc3c2)c1 [compound 22] | 0.06 ± 0.01 µM | 32% | 22% | 11 ± 3 µM | 1.3 ± 0.1 µM | 27% | 0.3 ± 0.04 µM | 43% | – |
| O=C(O)CCc1cccc(NC(=O)c2ccccc2NC(=O)C2=C(Cl)c3ccccc3OC2)c1 [S2, 3-(3-[2-{4-Chloro-2H-chromene-3-carboxamido}benzamido]phenyl)propanoic acid] | – | – | – | – | – | – | – | – | EC50 [1, 11]: 0.42 ± 0.01 µM; Emax ([1]; read-out: PPAR max. rel. act.): 31 ± 1%; EC50 [2, 12]: 11 ± 1 µM; FXR max. rel. act. ([2]; n ≥ 2): 16 ± 1%; EC50 [3, 13]: 2.3 ± 0.1 µM; Emax ([3]; read-out: PPAR max. rel. act.): 9 ± 0.1%; EC50 [4, 14]: 0.46 ± 0.03 µM; Emax ([4]; read-out: PPAR max. rel. act.): 31 ± 1% |
| O=C(O)CCc1cccc(NC(=O)c2ccccc2NC(=O)c2ccc(-c3ccccc3)cc2)c1 [compound 30] | – | 38% | 33% | 1.3 ± 0.2 µM | – | 16 ± 10% | > 30 µM | – | EC50 [1, 9]: 2.5 ± 0.5 µM; EC50 [3, 10]: 1.6 ± 0.2 µM |
| O=C(O)CCc1cccc(NC(=O)c2ccccc2NC(=O)c2ccc(-c3ccco3)cc2)c1 [compound 31] | 0.2 ± 0.01 µM | 43% | 23% | 5.4 ± 0.1 µM | 2.2 ± 0.1 µM | 9% | 1.8 ± 0.3 µM | 22% | – |
| Cc1cccc2c1C=C(C(=O)Nc1ccccc1C(=O)Nc1cccc(CCC(=O)O)c1)CO2 [S3, 3-(3-[2-{5-Methyl-2H-chromene-3-carboxamido}benzamido]phenyl)propanoic acid] | – | – | – | – | – | – | – | – | EC50 [1, 11]: 0.67 ± 0.04 µM; Emax ([1]; read-out: PPAR max. rel. act.): 27 ± 1%; EC50 [2, 12]: 4.3 ± 0.3 µM; FXR max. rel. act. ([2]; n ≥ 2): 11 ± 1%; EC50 [3, 13]: 8 ± 0.8 µM; Emax ([3]; read-out: PPAR max. rel. act.): 14 ± 1%; EC50 [4, 14]: 0.83 ± 0.1 µM; Emax ([4]; read-out: PPAR max. rel. act.): 24 ± 1% |
| O=C(O)CCc1cccc(NC(=O)c2ccccc2NC(=O)c2ccc(-c3cocn3)cc2)c1 [compound 37] | 12 ± 1 µM | 52% | 41% | 6.9 ± 0.3 µM | 6 ± 1 µM | 15% | 20 ± 1 µM | 36% | – |
| O=C(O)CCc1ccc(NC(=O)c2ccccc2NC(=O)c2ccc3ccccc3c2)cc1 [compound 12] | – | – | 21 ± 10% | 2.1 ± 0.1 µM | – | – | > 30 µM | – | EC50 [1, 9]: > 30 µM; EC50 [3, 10]: > 30 µM |
| Cc1ccc(C(=O)Nc2cccc(CCC(=O)O)c2)c(NC(=O)c2ccc3ccccc3c2)c1 [compound 17] | 0.17 ± 0.02 µM | 34% | 21% | 1.5 ± 0.1 µM | 1.4 ± 0.3 µM | 21% | 1.7 ± 0.2 µM | 67% | – |
| Cc1ccc2c(c1)C=C(C(=O)Nc1ccccc1C(=O)Nc1cccc(CCC(=O)O)c1)CO2 [S4, 3-(3-[2-{6-Methyl-2H-chromene-3-carboxamido}benzamido]phenyl)propanoic acid] | – | – | – | – | – | – | – | – | EC50 [1, 11]: 1.5 ± 0.2 µM; Emax ([1]; read-out: PPAR max. rel. act.): 16 ± 1%; EC50 [2, 12]: 5.4 ± 0.1 µM; FXR max. rel. act. ([2]; n ≥ 2): 12 ± 1%; EC50 [3, 13]: 5 ± 1.6 µM; Emax ([3]; read-out: PPAR max. rel. act.): 36 ± 8%; EC50 [4, 14]: 0.84 ± 0.1 µM; Emax ([4]; read-out: PPAR max. rel. act.): 29 ± 1% |
| CC(C)(Nc1cccc(NC(=O)c2ccccc2NC(=O)c2ccc3ccccc3c2)c1)C(=O)O [compound 15] | 3.6 ± 0.2 µM | 42% | 10% | 0.45 ± 0.01 µM | 5.1 ± 0.9 µM | 18% | 1.7 ± 0.1 µM | 71% | – |
